≈ marks a conversion by molar mass, not a printed value. Structures can show the parent of a compound that is named as a salt. Where two headings read alike, the source gives them in different places.
How the values were obtained:
myopic progression = details: ATOM trial, cited from earlier work
[1] = pig, 24 h, 0.5 %
Description: (§1) To assess the vitreous penetration, dopamine (dopamine hydrochloride; Sigma-Aldrich, St. Louis, Mo., USA), and etilevodopa (BOC Sciences, Shirley, N.Y., USA) were freshly dissolved in phosphate buffered saline solution (PBS, pH 7.4; Aniara, West Chester, Ohio, USA) at the concentration of 0.5%, whereas levodopa (Sigma-Aldrich) was freshly dissolved in distilled water at 0.5%. Thirty microliters of each solution was placed onto the cornea of enucleated porcine eyes (Animal Technologies, Tyler, Tex., USA; at least six porcine eyes were studied for each treatment), which were no more than 30 hours since enucleation and were maintained on ice throughout experimentation. PBS was used as a vehicle control. The vitreous humor sample was collected after 24 hours for quantitative measurement of dopaminergic derivative level using an enzyme-linked immunosorbent assay (ELISA) kit according to the manufacturers' protocol (dopamine ELISA kit; Immuno-Biological Laboratories, Inc., Minneapolis, Minn., USA).

[2] = Observation of rat behavior during the 28-day study; type: in vivo; details: once-daily topical etilevodopa
rat eyes = assay: Histology and immunohistochemistry (H&E, cleaved caspase-3, TUNEL) of rat eyes; type: in vivo, Long Evans rat; details: 5 μL etilevodopa 10% once daily, 14 and 28 days
Experimental: To assess for inflammation and apoptosis, 5 μL of etilevodopa 10% was administered as a once-daily eye drop to one eye of each rat, and the contralateral eye received PBS as a control. Rat eyes were enucleated at 14 and 28 days after treatment and fixed in 4% paraformaldehyde (VWR, Visalia, Calif., USA) overnight at 4° C., dehydrated in graded series of sucrose and alcohol, frozen, and cut into 12 μm sections onto glass slides.
For inflammation, frozen sections were first fixed in 10% formalin (Sigma-Aldrich) for 20 minutes and washed in water, followed by staining the nuclei with hematoxylin for three minutes and washing in water again. The slides were then dipped in lithium carbonate (bluing agent) for 45 seconds, washed in water, immersed in 95% ethanol (2-3 dips), and stained with eosin for another three minutes. After dehydrating in 95% ethanol for one minute and then in 100% ethanol for two minutes, the slides were mounted with Cytoseal 60 and imaged using Nikon Eclipse E800 microscope (Nikon Corp., Tokyo, Japan).
For apoptosis, sections were stained with cleaved caspase-3 (Cell Signaling, Beverly, Mass., USA). Briefly, sections were first washed with washing buffer (0.1% Triton X-100 in PBS) three times for five minutes each, blocked with 5% bovine serum albumin (Fraction V; Sigma-Aldrich) in washing buffer for one hour, followed by incubating in primary antibody-cleaved caspase-3 (1:200 in washing buffer) for two hours. After washing three times for five minutes each, sections were incubated in secondary antibody (AlexaFluor 488 donkey anti-rabbit IgG; 1:400; Invitrogen, Waltham, Mass., USA) in washing buffer for one hour, followed by washing another three times and mounting with 4′,6-diamidino-2-phenylindole (DAPI)-containing mounting media (Vectashield; Vector Laboratories, Burlingame, Calif., USA). Slides were imaged using Leica DMi8 microscope (Leica Microsystems Inc., Buffalo Grove, Ill., USA). Terminal deoxynucleotidyl transferase dUTP nick end labeling (TUNEL) assay was also performed to further detect apoptosis using TUNEL label mix kit (Sigma-Aldrich). […]

[3] = Ex vivo ocular penetration of dopamine and dopaminergic derivatives in enucleated porcine eyes (dopamine ELISA); details: topical
Description: as §1

Long Evans rat eyes = assay: Clinical examination, OCT imaging and ERG after once-daily topical etilevodopa; type: in vivo
Experimental: Etilevodopa 10% 5 μL was administered as an eye drop once daily to one eye of each rat for 28 consecutive days, and the contralateral eye received PBS as a control. To assess the tolerability after administering etilevodopa over time, clinical examination was conducted at 14 and 28 days during treatment. To assess retinal structure and function, spectral-domain OCT (Spectralis HRA+OCT instrument; Heidelberg Engineering, Heidelberg, Germany) and full-field ERG (D300; Diagnosys LLC, Lowell, Mass., USA) were also performed at 14 and 28 days. Briefly, rats were first anesthetized with intraperitoneal injection of a mixture of ketamine hydrochloride (75 mg/kg; Hospira, Inc., Lake Forest, Ill., USA) and xylazine (5 mg/kg; Bedford Laboratories, Bedford, Ohio, USA). The corneas were topically anesthetized with tetracaine 0.5% (Alcon Laboratories, Inc. Fort Worth, Tex., USA), and the pupils were dilated with tropicamide 1% (Akorn, Inc., Lake Forest, Ill., USA) and phenylephrine hydrochloride 2.5% (Akorn, Inc.).
For clinical examination, 1% methylcellulose and a plastic coverslip were applied to the cornea to enhance visualization. A Zeiss OPMI MDO S5 Microscope (Prescott's, Inc., Monument, Col., USA) with an Excelis camera (ACCU-SCOPE, Inc., Commack, N.Y., USA) was used to digitally record ocular photos.
For OCT, 1% methylcellulose and a coverslip were placed on the anesthetized rat cornea. A commercially available 78-D double aspheric fundus lens (Volk Optical, Inc., Mentor, Ohio, USA) was mounted in front of the OCT and images were taken with proprietary software (Eye Explorer, version 3.2.1.0; Heidelberg Engineering). A raster scan of 19 equally spaced horizontal B-scans centered on the optic nerve was captured.
For full-field ERG, rats were dark-adapted overnight. A gold wire loop was placed on the cornea of both eyes, a reference electrode was placed subcutaneously on the nose, and a ground electrode was placed in the tail. ERG responses were recorded from both eyes simultaneously. The flash intensity was set at six increasing intensities of 0.0001, 0.001, 0.01, 0.1, 1, and 3 cd·s/m2. ERG recordings were averaged over 10 presentations of a single one-millisecond flash with a 10-second interstimulus interval. The A-wave amplitude was measured from the baseline to trough, while the B-wave was measured from the trough to peak.

[4] = In vivo pharmacokinetics after a single topical treatment of etilevodopa 10% in Long Evans rat eyes; details: single topical etilevodopa 10%, noncompartmental analysis
Experimental: To assess the short-term pharmacokinetic effect, 5 μL of etilevodopa 10% was instilled onto a rat eye. At one, two, four, eight, and 24 hours, rats were sacrificed (at least three rats were studied at each time point). Serum was obtained by allowing the blood sample to clot at room temperature for 0.5 to 1 hour, followed by centrifuging at 13,000 rpm for 10 minutes (MiniSpin Eppendorf; Thermo Fisher Scientific, Waltham, Mass., USA). Serum was then frozen at −80° C. until tested. Eyes were enucleated and collected for quantitative measurement of dopaminergic derivative levels. Concentrations of dopaminergic derivative in both whole eye and vitreous/retina were measured for pharmacokinetic evaluation. Briefly, tissue samples were incubated with 150 μL lysis buffer (CelLytic MT Cell Lysis Reagent; Sigma-Aldrich) for 0.5 to 1 hour, followed by centrifuge at 13,000 rpm for 10 minutes, and the supernatant was collected. All samples were immediately frozen at −80° C. until tested. The level of dopaminergic derivative was measured in both serum and eye using a dopamine ELISA kit (Immuno-Biological Laboratories, Inc.) according to the manufacturer's instruction.

[5] = Maximum solubility / achievable concentration of topical solutions; type: physicochemical
Description: PBS was used as a vehicle control.

[6] = ibopamine for hypotony, before 24 weeks; cited from earlier work
axial elongation [7] = details: chick, Thomson et al., cited from earlier work
axial elongation [8] = assay: Reduction of axial elongation by levodopa in chicks (Thomson et al.); type: in vivo; details: Gallus gallus; calculated using a chick vitreous volume of 200 μL; read-out: EC50 as intravitreal concentration
intravitreal dopamine = details: chick eyes with negative lenses, after three days of treatment; cited from earlier work
[9] = 1% atropine nightly in one eye over two years

In the case of `CN1[C@@H]2CC[C@H]1C[C@@H](OC(=O)C(CO)c1ccccc1)C2` (some centres unmarked) [atropine], the diopter difference (myopic progression; [9]) is listed as “~+0.8 diopter”, the “reduction of myopic progression” value (myopic progression; [9]) is listed as 77% and the axial length (myopic progression; 1% atropine nightly over two years) is listed as “remained unchanged”.

For `NCCc1ccc(O)c(O)c1` [dopamine, dopamine hydrochloride], the “concentration of dopaminergic derivatives in the vitreous” value [1] was 375.1 ng/mL and the “fold higher intravitreal concentration as compared to etilevodopa 10%” value [1] was 10 fold.

With `CCOC(=O)[C@@H](N)Cc1ccc(O)c(O)c1` [etilevodopa] the “rat behavior (activity levels, aggression, feeding pattern, weight gain)” value [2] was “no obvious changes in rat behavior”, the “TUNEL+ DAPI+ cells” value (rat eyes) was “no TUNEL+ DAPI+ cells observed” and the “hematoxylin and eosin staining of the retina” value (rat eyes) was “no infiltration of inflammatory cells, fibrosis or morphological changes”. The “number of cleaved caspase-3+ DAPI+ cells, treatment vs control” value (rat eyes) was “no statistically significant change”, the “corneal penetration as compared to levodopa at a given concentration” value [3] was “did not exhibit enhanced corneal penetration” and the direct toxicity (Long Evans rat eyes; four-week application as a topical eye drop) was “no evidence of direct toxicity”. For the same compound, the “ERG A-wave amplitude, treated vs control eyes” value (Long Evans rat eyes; in vivo) was “no statistically significant difference”, the “ERG B-wave amplitude, treated vs control eyes” value (Long Evans rat eyes; in vivo) was “no statistically significant difference” and the OCT retinal structure (Long Evans rat eyes; in vivo) was “did not demonstrate any qualitative structural changes”. The “clinical eye photos (inflammatory response, corneal opacity, fundus abnormalities, conjunctival redness)” value (Long Evans rat eyes; in vivo) was “no evidence of inflammatory response, corneal opacity, fundus abnormalities, or conjunctival redness”, the “cornea and lens clarity” value (Long Evans rat eyes; in vivo) was “remained clear” and the “overall retina morphology and blood vessels” value (Long Evans rat eyes; in vivo) was “remained unchanged”. The “retinal detachment, edema or inflammation” value (Long Evans rat eyes; in vivo) was “No retinal detachment, edema or inflammation was observed”, the AUC0→∞ ([4]; blood) was 11.2 ng·h/mL and the AUC0→∞ ([4]; retina/vitreous) was 818 ng·h/mL. The AUC0→∞ ([4]; whole eye) was 4300 ng·h/mL and the maximum solubility ([5]; PBS, pH 7.4) was 10%.

For `CNCCc1ccc(OC(=O)C(C)C)c(OC(=O)C(C)C)c1` [ibopamine], the “patients who stopped using the drug due to follicular conjunctivitis or irritation” value [6] is given as 8 of 17.

In the case of `N[C@@H](Cc1ccc(O)c(O)c1)C(=O)O` [levodopa], the “concentration of dopaminergic derivatives in the vitreous” value [1] is listed as 11.9 ng/mL, the maximum concentration achievable ([5]; distilled water) is listed as 0.5% and the EC50 (axial elongation [7]; intravitreal administration, 10 μL dose, read-out: EC50 for a reduction of axial elongation) is listed as 800 nM. The “EC50 for a reduction of axial elongation” value (axial elongation [7]; topical levodopa) was 0.05% and the EC50 (axial elongation [8]) was ~7.9 ng/mL (≈ 0.0401 µM).

For “insulin (Insulin B chain AANQHLCGSHLVEALYLVCGERGFFYSPKA; Insulin A chain GIVEQCCHNTCSLYQLENYCN; UniProt P67970 25-54; P67970 87-107, looked up) [insulin injected into chick eyes treated with negative lenses]”, the “increase in intravitreal dopamine” value (intravitreal dopamine) is listed as 2 fold.
